Reference: article PMC10201669, “A novel coumarin derivative DBH2 inhibits proliferation and induces apoptosis of chronic myeloid leukemia cells” (Genes & Diseases, 2022)
≈ marks a conversion by molar mass, not a printed value.

What was measured:
K562 cells [1] = assay: CCK-8 cell viability assay, K562 cells; type: cell-based, human; details: CCK-8, 48 h; for IC50: Homo sapiens, K562
Procedure: (§1) Human CML cell line K562 cells and human umbilical vein endothelial cells (HUVECs) were purchased from ATCC (Manassas, USA). Drug resistant K562 (K562R) cells were provided by the Chinese Academy of Medical Science Hematology Institute. The cells were cultured in RPMI-1640 medium containing 10% fetal bovine serum (FBS) in cell culture flasks under a humidified 5% CO2 and 95% air atmosphere at 37 °C. Bone marrow (BM) cells from mice or patients were cultured in DMEM/F12 medium supplemented with 20% FBS.
(§2) Cell viability was examined using the cell counting kit-8 (CCK-8) assay (YEASEN China). In brief, cells (1 × 10^4 cells/well) in confluent 96-well cell culture plates were treated with different concentrations of coumarin derivative (1, 5, 10, 25, 50, 100, 200, and 400 μg/mL) for 48 h. Then 10 μL CCK-8 reagents were added into every well for 2 h of incubation. Optical density (OD) was detected using the microplate reader (BioTek, Germany). The values were then fit into a non-linear regression curve and the IC50 was calculated using GraphPad Prism.

K562R cells = assay: CCK-8 cell viability assay, drug resistant K562 cells; type: cell-based, human; details: CCK-8, 48 h; for IC50: Homo sapiens, K-562R
Procedure: as §1, §2

HUVECs = assay: CCK-8 cell viability assay (cytotoxicity), HUVECs; type: cell-based, human; details: CCK-8, 48 h; for IC50: Homo sapiens, HUVEC
Procedure: as §1, §2

[2] = system: CD34+ hematopoietic stem and progenitor cells (HSPCs); assay: CCK-8 cell viability assay (cytotoxicity), HSPCs; type: cell-based, human; details: CCK-8, 48 h; for IC50: Homo sapiens
Source text: (§3) Human CD34^+ HSCPs were obtained from the specimens of consenting healthy donors or CML patients at Xijing Hospital, and purified using Human Whole Blood CD34 Positive Selection Kit II (StemCell Technologies, China). Briefly, the human bone marrow was homogenized, and the top layering with Ficoll-Paque (GE Healthcare, USA) interphase containing immune cells and CD34^+ HSPCs was collected and washed with PBS, then CD34^+ HSPCs were purified according to the protocol of EasySep human CD34 positive selection kit (StemCell Technologies, China). CD34^+ cells were cultured in StemSpan-ACF medium II supplemented with 50 ng/mL human stem cell factor, 10 ng/mL thrombopoietin, 20 ng/mL FMS-related tyrosine kinase 3 ligand, 20 ng/mL interleukin-6 and 1% penicillin-streptomycin solution.
as §2

PARP1 = assay: Western blot, PARP1 protein in K562 cells; type: cell-based, human; details: K562, 100 and 200 μg/mL, vs untreated control
Procedure: (§4) Cells were washed with Tris-buffered saline (TBS) and lysed by adding 100 μL of RIPA Lysis Buffer System containing protease inhibitors. Then, cell extraction was subjected to gel electrophoresis and transferred onto a polyvinylidene difluoride membrane (Millipore, Germany). After blocking with 3% BSA in TBS for 2 h, the membrane was probed with primary antibodies overnight at 4 °C, the antibody against PARP1 (Proteintech, USA) or ROCK1 proteins (Proteintech, USA) was diluted at 1:1000, and the antibody for GAPDH (Abcam, UK) was diluted at 1:1000. After secondary antibodies labeled with infrared dyes were added, the signals were visualized using the Odyssey Infrared Imaging System (Biosciences, USA).

STAT3 = assay: Quantitative RT-PCR, STAT3 mRNA in K562 cells; type: cell-based, human; details: K562, 50, 100, 200 μg/mL
Procedure: (§5) RNA was extracted from cells using an RNA extraction kit according to the manufacturer protocol. After reverse transcription, the real-time PCR was performed for three independent experiments with a 7300 real-time PCR system (Applied Biosystems, USA) using SYBR Premix ExTaq (Takara, China). The relative expression of genes was calculated by the 2^-△△Ct method, with normalization to GAPDH levels. Amplified products were visualized with an Alpha Imager 2200 digital imaging system (Alpha Innotech, USA). The primers (forward and backward) used were depicted in Table S1.

[3] = system: bone marrow myeloid cells from wild type mice; assay: Annexin V/PI apoptosis, bone marrow myeloid cells from WT mice (Fig 5); type: cell-based, mouse; details: WT, 50, 100, 200 μg/mL, 24 h
Procedure: (§6) Apoptotic cells were quantified with an FITC Annexin V Apoptosis detection kit (Becton Dickinson Biosciences, USA) according to manufacturer’s protocol. Briefly, cells at 1 × 10^5 cells/mL were incubated with various concentrations (50, 100 and 200 μg/mL) of compound DBH2 for 24 h at 37 °C. Cells were harvested and re-suspended in the binding buffer, then stained with 5 μL Annexin V-FITC and 5 μL propidium iodide (PI) for 15 min at room temperature in the dark. The apoptotic index was immediately determined by FACSCalibur Flow Cytometer (Becton Dickinson Biosciences, CA). For the cell cycle, K562 cells were harvested and fixed in 75% ethanol overnight at 4 °C, then re-suspended in pre-cooling PBS containing 0.1 mg/mL RNase and 0.02 mg/mL PI for 30 min at 37 °C. After the treatment of compound DBH2 or 1% DMSO as vehicle control, the cell cycle was analyzed using the flow cytometry and Cell Quest software (BD Biosciences, USA).
(§7) The SCL-tTA-BCR/ABL transgenic model mice were used as donor, and sub-lethally irradiated (850 rad) wild type mice were use as receiver, once the bone marrow transplantation (BMT) was performed from the donor mice to the recipient mice, the CML-like model mice was established. After 8 weeks, the bone marrow reconstitution was confirmed, and the effect of treatments to the survival rates of recipient mice was observed. […]

[4] = system: bone marrow cells of recipients (BCR/ABL model mice); assay: Annexin V/PI apoptosis, bone marrow cells of BMT recipients, DBH2 with or without imatinib; type: cell-based, mouse; details: DBH2 at various concentrations with or without 1 μM imatinib
Procedure: (§8) The SCL-tTA-BCR/ABL transgenic model mice were used as donor, and sub-lethally irradiated (850 rad) wild type mice were use as receiver, once the bone marrow transplantation (BMT) was performed from the donor mice to the recipient mice, the CML-like model mice was established. […] Caspase-3 knock-out mice were kindly gifted from the lab of Professor Hua Han, the Fourth Military Medical University.

K562 cells [5] = assay: Transmission electron microscopy of K562 cells; type: cell-based, human; details: K562, 100 μg/mL, post 24 h
Procedure: CML cells were seeded and grown at […] in three flasks.

ROCK1 = assay: Western blot, ROCK1 protein in K562 cells; type: cell-based, human; details: K562, 50, 100, 200 μg/mL
Procedure: as §4

STAT5 = assay: Quantitative RT-PCR, STAT5 mRNA in K562 cells; type: cell-based, human; details: K562, 50, 100, 200 μg/mL
Procedure: as §5

[6] = system: bone marrow myeloid cells from caspase-3 gene knock-out mice; assay: Annexin V/PI apoptosis, bone marrow myeloid cells from caspase-3 knock-out mice; type: cell-based, mouse
Procedure: as §6, §7

K562 cells [7] = assay: Annexin V-FITC/PI flow cytometry, apoptosis of K562 cells; type: cell-based, human; details: 50, 100, 200 μg/mL, 24 h, vs vehicle
Procedure: as §6

K562 cells [8] = assay: Cell cycle distribution by flow cytometry, K562 cells; type: cell-based, human; details: K562, 100 μg/mL; vehicle 33.9%
Procedure: as §6

[9] = system: bone marrow cells from CML patients; assay: Annexin V/PI apoptosis, bone marrow cells from CML patients; type: cell-based, human
Procedure: as §1
The ages of three male CML patients […], all of them were newly diagnosed chronic phase, and before starting TKI therapy. Informed consent was obtained from all participants. This study adhered to the World Medical Association’s Declaration of Helsinki and its amendments for Ethical Human Research including confidentiality, privacy, and data management.
Apoptotic cells were quantified with an FITC Annexin V Apoptosis detection kit (Becton Dickinson Biosciences, USA) according to manufacturer’s protocol. […] The apoptotic index was immediately determined by FACSCalibur Flow Cytometer (Becton Dickinson Biosciences, CA). […] After the treatment of compound DBH2 or 1% DMSO as vehicle control, the cell cycle was analyzed using the flow cytometry and Cell Quest software (BD Biosciences, USA).

[10] = system: CD34+ LSCs from CML patients; assay: Apoptosis of CD34+ LSCs from CML patients; type: cell-based, human; details: 100 μg/mL, 24 h
Source text: as §3
Apoptotic cells were quantified with an FITC Annexin V Apoptosis detection kit (Becton Dickinson Biosciences, USA) according to manufacturer’s protocol. Briefly, cells at 1 × 10^5 cells/mL were incubated with various concentrations (50, 100 and 200 μg/mL) of compound DBH2 for 24 h at 37 °C. […] The apoptotic index was immediately determined by FACSCalibur Flow Cytometer (Becton Dickinson Biosciences, CA). […] After the treatment of compound DBH2 or 1% DMSO as vehicle control, the cell cycle was analyzed using the flow cytometry and Cell Quest software (BD Biosciences, USA).

[11] = system: CML-like model mice (recipients of SCL-tTA-BCR/ABL bone marrow); assay: Survival of CML-like model mice after bone marrow transplantation; type: in vivo, mouse; details: DBH2 100 mg/kg, 32 days with two-day interval post-BMT, intragastric
Procedure: as §8

[12] = system: bone marrow cells from SCL-tTA-BCR/ABL transgenic model mice; assay: Annexin V/PI apoptosis, bone marrow cells from SCL-tTA-BCR/ABL transgenic model mice; type: cell-based, mouse; details: 50, 100, 200 μg/mL
Procedure: as §1
as §6, with “For the cell cycle, K562 cells were harvested and fixed in 75% ethanol overnight at 4 °C, then re-suspended in pre-cooling PBS containing 0.1 mg/mL RNase and 0.02 mg/mL PI for 30 min at 37 °C.” left out, “USA). […]” for “USA).”

[13] = system: human cervical cancer HeLa cells; set-up: method as in PMID 18210747; details: G0/G1 arrest and apoptosis; cited from earlier work

SMILES	IC50 (K562 cells [1])	IC50 (K562R cells)	IC50 (HUVECs)	IC50 [2]	other results
O=c1oc2ccccc2c(O)c1C(c1ccccc1)c1c(O)c2ccccc2oc1=O [DBH1, 3,3′-benzylidene-bis-(4-hydroxycoumarin)]	31.3 µg/mL (≈ 75.8 µM)	33.4 µg/mL (≈ 81 µM)	85.7 µg/mL (≈ 208 µM)	76.3 µg/mL (≈ 185 µM)	
COc1cc(OC)cc(C(c2c(O)c3ccccc3oc2=O)c2c(O)c3ccccc3oc2=O)c1 [DBH5, 3,3′-(3,5-dimethoxybenzylidene)-bis-(4-hydroxycoumarin)]	30.4 µg/mL (≈ 64.5 µM)	34.4 µg/mL (≈ 72.7 µM)	50.3 µg/mL (≈ 106 µM)	46.4 µg/mL (≈ 98.2 µM)	
O=c1oc2ccccc2c(O)c1C(c1cc(F)cc(F)c1)c1c(O)c2ccccc2oc1=O [DBH2, 3,3′-(3,5-difluorobenzylidene)-bis-(4-hydroxycoumarin)]	36.3 µg/mL (≈ 81 µM)	38.8 µg/mL (≈ 86.5 µM)	232 µg/mL (≈ 518 µM)	225 µg/mL (≈ 502 µM)	expression of PARP1 protein (PARP1): up-regulate the expression of PARP1 significantly; expression of STAT3 mRNA (STAT3): inhibit the expression of STAT3 and STAT5 in a dose-dependent manner; Annexin V positive cells [3]: increasing number of Annexin V positive cells; number of apoptotic cells [4]: ascendant number of apoptotic cells; morphological observation (TEM) (K562 cells [5]): typical apoptotic-body in nuclear appeared; expression of ROCK1 protein (ROCK1): up-regulated the expression of ROCK1 in dose-dependent manner; expression of STAT5 mRNA (STAT5): inhibit the expression of STAT3 and STAT5 in a dose-dependent manner; DBH2-induced apoptosis compared to the cells from wild type mice ([6]; caspase-3 knock-out vs WT): significant less; Annexin V positive cells ([6]; caspase-3 knock-out, 50, 100, 200 μg/mL, 24 h): increasing number of Annexin V positive cells; apoptosis in CML cells (K562) (K562 cells [7]): trigger significant apoptosis in CML cells with concentration-dependent responses; percentage of cells in the G2/M phase (K562 cells [8]): 41.3%; apoptosis of bone marrow cells from CML patients ([9]; 50, 100 and 200 μg/mL): promoted the apoptosis of bone marrow cells from CML patients in dose-dependent manner; induced apoptosis in bone marrow cells from CML patients compared to its effects on CD34+ LSC ([9]; bone marrow cells vs CD34+ LSC): almost twice fold; CD34+ LSCs developed into the apoptotic process [10]: more than twice fold; survival of treated mice [11]: remarkably prolonged about two times; apoptosis in bone marrow cells from CML model mice compared to WT mice [12]: induce the remarkable apoptosis
O=c1oc2ccccc2c(O)c1C(c1cc(Cl)cc(Cl)c1)c1c(O)c2ccccc2oc1=O [DBH3, 3,3′-(3,5-dichlorobenzylidene)-bis-(4-hydroxycoumarin)]	36.5 µg/mL (≈ 75.8 µM)	45.7 µg/mL (≈ 95 µM)	52.3 µg/mL (≈ 109 µM)	72.4 µg/mL (≈ 150 µM)	
O=c1oc2ccccc2c(O)c1C(c1cc(Br)cc(Br)c1)c1c(O)c2ccccc2oc1=O [DBH4, 3,3′-(3,5-dibromobenzylidene)-bis-(4-hydroxycoumarin)]	36.5 µg/mL (≈ 64.1 µM)	39.9 µg/mL (≈ 69.9 µM)	88.7 µg/mL (≈ 155 µM)	83.1 µg/mL (≈ 146 µM)	
O=c1ccc2ccccc2o1 [coumarin]					IC50 [13]: 54.2 µM
COc1cccc2c1C(=O)c1c(O)c3c(c(O)c1C2=O)C[C@@](O)(C(=O)CO)C[C@@H]3O[C@H]1C[C@H](N)[C@H](O)[C@H](C)O1 [Doxorubicin, reference compound]	16.4 µg/mL (≈ 30.2 µM)	24.1 µg/mL (≈ 44.4 µM)	8.76 µg/mL (≈ 16.1 µM)	8.04 µg/mL (≈ 14.8 µM)	
O=c1oc2ccccc2c(O)c1C(c1cc(C(F)(F)F)cc(C(F)(F)F)c1)c1c(O)c2ccccc2oc1=O [DBH6, 3,3′-(3,5-ditrifluoromethylbenzylidene)-bis-(4-hydroxycoum-arin)]					IC50, K562 cells (K562 cells [1]): 31.32 µg/mL (≈ 57.1 µM); IC50, K562 R cells (K562R cells): 35.68 µg/mL (≈ 65.1 µM); IC50, HUVECs (HUVECs): 72.42 µg/mL (≈ 132 µM); IC50, HSPCs [2]: 67.75 µg/mL (≈ 124 µM)
